# Source: ChEMBL document CHEMBL3885861, “Open TG-GATES”
# Species on record: Rattus norvegicus
# Assay: Open TG-GATES - Regimen: Daily Repeat
# Format: toxicity, organism-based, Sprague-Dawley
# Design: regimen Daily Repeat, gender Male, age 6 weeks
# Details: in vivo, po, 100 mg/kg, route gavage, dose level Low; for APTT / Bas / Eos / Fbg / Hb / Ht / Lym / MCH / MCHC / MCV / Mono / Neu / PT / Plat / RBC / Ret / WBC: tissue Blood; for KIDNEY_L / KIDNEY_R / KIDNEY_TOTAL: tissue Kidney; for LIVER: tissue Liver; for A/G / ALP / ALT / AST / BUN / CRE / Ca / Cl / DBIL / GLC / IP / K / LDH / Na / PL / RALB / TBIL / TC / TG / TP / gamma-GTP: tissue Plasma
compound,measurement,setting,value
CCN1CCCC1CNC(=O)c1cc(S(N)(=O)=O)ccc1OC (configuration not stated) [SULPIRIDE],TERMINAL_BW,"72 h, time 3 day",231.2 g
same,APTT,"72 h, time 3 day",17.2 s
same,Bas,"72 h, time 3 day",0%
same,Eos,"72 h, time 3 day",1%
same,Fbg,"72 h, time 3 day",274.6 mg/dL
same,Hb,"72 h, time 3 day",13.6 g/dL
same,Ht,"72 h, time 3 day",41.3%
same,Lym,"72 h, time 3 day",74.8%
same,MCH,"72 h, time 3 day",20.9 pg
same,MCHC,"72 h, time 3 day",32.8%
same,MCV,"72 h, time 3 day",63.7 fL
same,Mono,"72 h, time 3 day",3%
same,Neu,"72 h, time 3 day",20.8%
same,PT,"72 h, time 3 day",13.2 s
same,Plat,"72 h, time 3 day",122 x10_4/uL
same,RBC,"72 h, time 3 day",649.2 x10_4/ul
same,Ret,"72 h, time 3 day",6.5%
same,WBC,"72 h, time 3 day",95.3 x10_2/uL
same,KIDNEY_L,"72 h, time 3 day",1 g
same,KIDNEY_R,"72 h, time 3 day",1 g
same,KIDNEY_TOTAL,"72 h, time 3 day",2 g
same,LIVER,"72 h, time 3 day",10.7 g
same,A/G,"72 h, time 3 day",0.9
same,ALP,"72 h, time 3 day",1543 IU/L
same,ALT,"72 h, time 3 day",42.4 IU/L
same,AST,"72 h, time 3 day",66.4 IU/L
same,BUN,"72 h, time 3 day",13.6 mg/dL
same,CRE,"72 h, time 3 day",0.2 mg/dL
same,Ca,"72 h, time 3 day",11 mg/dL
same,Cl,"72 h, time 3 day",105.2 meq/L
same,DBIL,"72 h, time 3 day",0.01 mg/dL
same,GLC,"72 h, time 3 day",186.8 mg/dL
same,IP,"72 h, time 3 day",7.4 mg/dL
same,K,"72 h, time 3 day",4.2 meq/L
same,LDH,"72 h, time 3 day",70.4 IU/L
same,Na,"72 h, time 3 day",141 meq/L
same,PL,"72 h, time 3 day",142.2 mg/dL
same,RALB,"72 h, time 3 day",2.6 g/dL
same,TBIL,"72 h, time 3 day",0.058 mg/dL
same,TC,"72 h, time 3 day",72 mg/dL
same,TG,"72 h, time 3 day",106.6 mg/dL
same,TP,"72 h, time 3 day",5.6 g/dL
same,gamma-GTP,"72 h, time 3 day",1 IU/L
same,TERMINAL_BW,"[…], time 7 day",265 g
same,TERMINAL_BW,"[…], time 14 day",328.7 g
same,TERMINAL_BW,"[…], time 28 day",377.8 g
same,APTT,"[…], time 7 day",19.5 s
same,Bas,"[…], time 7 day",0.6%
same,Eos,"[…], time 7 day",1.2%
same,Fbg,"[…], time 7 day",289.6 mg/dL
same,Hb,"[…], time 7 day",14 g/dL
same,Ht,"[…], time 7 day",42.1%
same,Lym,"[…], time 7 day",80%
same,MCH,"[…], time 7 day",20.5 pg
same,MCHC,"[…], time 7 day",33.2%
same,MCV,"[…], time 7 day",61.9 fL
same,Mono,"[…], time 7 day",2.8%
same,Neu,"[…], time 7 day",14.6%
same,PT,"[…], time 7 day",13.1 s
same,Plat,"[…], time 7 day",123.5 x10_4/uL
same,RBC,"[…], time 7 day",681.6 x10_4/ul
same,Ret,"[…], time 7 day",5.3%
same,WBC,"[…], time 7 day",106.6 x10_2/uL
same,APTT,"[…], time 14 day",20.6 s
same,Bas,"[…], time 14 day",0%
same,Eos,"[…], time 14 day",1%
same,Fbg,"[…], time 14 day",286 mg/dL
same,Hb,"[…], time 14 day",14.6 g/dL
same,Ht,"[…], time 14 day",44%
same,Lym,"[…], time 14 day",75.2%
same,MCH,"[…], time 14 day",20.6 pg
same,MCHC,"[…], time 14 day",33.2%
same,MCV,"[…], time 14 day",62.1 fL
same,Mono,"[…], time 14 day",3%
same,Neu,"[…], time 14 day",20%
same,PT,"[…], time 14 day",13.1 s
same,Plat,"[…], time 14 day",121.3 x10_4/uL
same,RBC,"[…], time 14 day",708 x10_4/ul
same,Ret,"[…], time 14 day",4.5%
same,WBC,"[…], time 14 day",97.2 x10_2/uL
same,APTT,"[…], time 28 day",19.8 s
same,Bas,"[…], time 28 day",0%
same,Eos,"[…], time 28 day",1.2%
same,Fbg,"[…], time 28 day",274.2 mg/dL
same,Hb,"[…], time 28 day",16 g/dL
same,Ht,"[…], time 28 day",46.9%
same,Lym,"[…], time 28 day",76.2%
same,MCH,"[…], time 28 day",19.8 pg
same,MCHC,"[…], time 28 day",34.2%
same,MCV,"[…], time 28 day",57.7 fL
same,Mono,"[…], time 28 day",1.8%
same,Neu,"[…], time 28 day",19.8%
same,PT,"[…], time 28 day",13 s
same,Plat,"[…], time 28 day",110.8 x10_4/uL
same,RBC,"[…], time 28 day",812.6 x10_4/ul
same,Ret,"[…], time 28 day",2.2%
same,WBC,"[…], time 28 day",95.5 x10_2/uL
same,KIDNEY_L,"[…], time 7 day",1.1 g
same,KIDNEY_R,"[…], time 7 day",1.1 g
same,KIDNEY_TOTAL,"[…], time 7 day",2.2 g
same,KIDNEY_L,"[…], time 14 day",1.2 g
same,KIDNEY_R,"[…], time 14 day",1.2 g
same,KIDNEY_TOTAL,"[…], time 14 day",2.4 g
same,KIDNEY_L,"[…], time 28 day",1.2 g
same,KIDNEY_R,"[…], time 28 day",1.2 g
same,KIDNEY_TOTAL,"[…], time 28 day",2.5 g
same,LIVER,"[…], time 7 day",12.9 g
same,LIVER,"[…], time 14 day",14.2 g
same,LIVER,"[…], time 28 day",14.4 g
same,A/G,"[…], time 7 day",0.9
same,ALP,"[…], time 7 day",1433 IU/L
same,ALT,"[…], time 7 day",45.4 IU/L
same,AST,"[…], time 7 day",66.6 IU/L
same,BUN,"[…], time 7 day",14.8 mg/dL
same,CRE,"[…], time 7 day",0.2 mg/dL
same,Ca,"[…], time 7 day",10.7 mg/dL
same,Cl,"[…], time 7 day",105.6 meq/L
same,DBIL,"[…], time 7 day",0.008 mg/dL
same,GLC,"[…], time 7 day",175.2 mg/dL
same,IP,"[…], time 7 day",7.5 mg/dL
same,K,"[…], time 7 day",4.4 meq/L
same,LDH,"[…], time 7 day",64.2 IU/L
same,Na,"[…], time 7 day",141.8 meq/L
same,PL,"[…], time 7 day",145.2 mg/dL
same,RALB,"[…], time 7 day",2.6 g/dL
same,TBIL,"[…], time 7 day",0.056 mg/dL
same,TC,"[…], time 7 day",70.4 mg/dL
same,TG,"[…], time 7 day",116.4 mg/dL
same,TP,"[…], time 7 day",5.6 g/dL
same,gamma-GTP,"[…], time 7 day",1 IU/L
same,A/G,"[…], time 14 day",0.9
same,ALP,"[…], time 14 day",1376.8 IU/L
same,ALT,"[…], time 14 day",38.8 IU/L
same,AST,"[…], time 14 day",68.5 IU/L
same,BUN,"[…], time 14 day",15.8 mg/dL
same,CRE,"[…], time 14 day",0.2 mg/dL
same,Ca,"[…], time 14 day",11 mg/dL
same,Cl,"[…], time 14 day",104.5 meq/L
same,DBIL,"[…], time 14 day",0.015 mg/dL
same,GLC,"[…], time 14 day",197 mg/dL
same,IP,"[…], time 14 day",7.6 mg/dL
same,K,"[…], time 14 day",3.9 meq/L
same,LDH,"[…], time 14 day",73.5 IU/L
same,Na,"[…], time 14 day",141.2 meq/L
same,PL,"[…], time 14 day",145.5 mg/dL
same,RALB,"[…], time 14 day",2.7 g/dL
same,TBIL,"[…], time 14 day",0.06 mg/dL
same,TC,"[…], time 14 day",67.5 mg/dL
same,TG,"[…], time 14 day",149 mg/dL
same,TP,"[…], time 14 day",5.8 g/dL
same,gamma-GTP,"[…], time 14 day",1 IU/L
same,A/G,"[…], time 28 day",0.8
same,ALP,"[…], time 28 day",981.6 IU/L
same,ALT,"[…], time 28 day",36 IU/L
same,AST,"[…], time 28 day",65.6 IU/L
same,BUN,"[…], time 28 day",17.2 mg/dL
same,CRE,"[…], time 28 day",0.3 mg/dL
same,Ca,"[…], time 28 day",10.5 mg/dL
same,Cl,"[…], time 28 day",105.2 meq/L
same,DBIL,"[…], time 28 day",0.008 mg/dL
same,GLC,"[…], time 28 day",178 mg/dL
same,IP,"[…], time 28 day",6.4 mg/dL
same,K,"[…], time 28 day",3.8 meq/L
same,LDH,"[…], time 28 day",173.6 IU/L
same,Na,"[…], time 28 day",142.6 meq/L
same,PL,"[…], time 28 day",136 mg/dL
same,RALB,"[…], time 28 day",2.8 g/dL
same,TBIL,"[…], time 28 day",0.068 mg/dL
same,TC,"[…], time 28 day",63 mg/dL
same,TG,"[…], time 28 day",112 mg/dL
same,TP,"[…], time 28 day",6.2 g/dL
same,gamma-GTP,"[…], time 28 day",1 IU/L
